Legend:
[1] = Thermal denaturation by CD spectroscopy at 220 nm; assay type: physicochemical; details: 10 mM PBS, pH 7.4, CD 220 nm
From the text: FIG. 2 depicts a plot of the CD spectra ellipticity at 220 nm wavelength of a fluorescently labeled periplasmic binding protein versus temperature. The plot for the protein without ligand is the solid line and the dotted line is the same protein in the presence of its ligand (glucose).
(§1) Combining the preceding mutations provided E149C,A213R,L238S, a protein with glucose binding affinity that is within the physiological range. […] As an illustrative example, the stability of this protein's binding activity was determined by storing solutions of the labeled protein at 25° C. and at 37° C. in a dark environment, and testing aliquots periodically for fluorescent response to glucose. The fluorescence increase for E149C,A213R,L238S upon binding glucose retained 92% of the original fluorescence increase after 3 months at 25° C., and 88% after 3 months at 37° C. Relative stability of the protein's tertiary structure was determined using CD (circular dichroism) spectroscopy of the protein in solution. Spectra were collected in 10 mM PBS, pH 7.4. Each spectrum was the average of 3 accumulations. Thermal denaturation was monitored at 220 nm using a temperature slope of 15° C. per hour over a temperature range of 15-75° C. The Tm (temperature where 50% of the protein was denatured) was 47° C. without glucose and 50° C. in the presence of glucose (see FIG. 2).

[2] = Stability of binding activity of labeled protein on storage, fluorescent response to glucose; assay type: physicochemical
Protocol: as §1

[3] = Fluorescent response and glucose binding curve of IANBD-labeled GGBP mutants; details: IANBD-labeled protein; for Kd: read-out: glucose affinity; for increase in fluorescence on binding glucose: fluorescent response to 100 mM glucose
Protocol: GGBP protein from the above examples, expressed from E. coli strain Sg13009 following standard protocols (Qiagen) may be further purified. For example, after induction, bacteria were lysed and purified by IMAC using Talon cobalt^2+ resin (Clontech). The purified protein solution was filtered through 100 kDa and 10 kDa cutoff filters (Millipore). […] The yield from the purification was 10 mg/l and the activity of the protein is stable for at least six months. The selected mutants were expressed, purified, and IANBD-labeled to determine their ability to produce a fluorescent response to 100 mM glucose. Mutant E149C,A213R and E149C,N256R produced a 6- and 2-fold increase in fluorescence on binding glucose, respectively. […] Mutant E149C,L238S was identified through an analogous procedure.
as §1

[4] = Fluorescence assay of NBD-labeled MBP mutants, maltotetraitol; assay type: binding; details: ligand maltotetraitol; for Kd: read-out: Affinity; for QF: ratio of fluorescence intensity with / without ligand
Protocol: (§2) For the mutants selected by FACS, a fluorescence assay was used to determine their maltose affinity. The mutants were labeled by fluorophore coupling of N,N′-dimethyl-N-(iodoacetyl)-N′-(7-nitrobenz-2-oxa-1,3-diazol-4-yl)ethylenediamine (IANBD amide, Molecular Probes) to a cysteine site created by mutagenesis at position 95 (Gilardi et al. (1997) Protein Eng. 10(5):479-86). Briefly, purified protein (1-2 mg/ml) was treated with dithiothreitol for 30 min and then a 10-fold molar excess of freshly prepared solution of IANBD was added. The protein and dye were gently mixed at RT for 4 hrs before the unreacted dye was removed by Nap-5 (Amersham) size-exclusion column chromatography. The efficiency of the coupling was determined by absorbance.
(§3) QF is defined as the ratio of fluorescence intensity in the presence of ligand, divided by the ratio of fluorescence intensity in the absence of ligand.

[5] = Fluorescence assay of NBD-labeled MBP mutants, maltotetraose; assay type: binding; details: ligand maltotetraose; for Kd: read-out: Affinity; for QF: ratio of fluorescence intensity with / without ligand
Protocol: as §2, §3

[6] = Fluorescence assay of NBD-labeled MBP mutants, maltose; assay type: binding; details: ligand Maltose; for Kd: read-out: Affinity; for QF: ratio of fluorescence intensity with / without ligand
Protocol: as §2, §3

[7] = Fluorescence assay of NBD-labeled MBP mutants, maltoside; assay type: binding; details: ligand maltoside; ratio of fluorescence intensity with / without ligand
Protocol: as §2, §3

[8] = FRET fluorescent response of E. coli expressing DsRed2-GGBP-acGFP to glucose; assay type: cell-based; details: 22 mM glucose; excitation at 475 nm; after accounting for volume displacement
Protocol: The expression of DsRed2-GGBP-acGFP in E. coli was optimized by first inducing with IPTG and then monitoring the fluorescence produced by the DsRed2 and acGFP proteins. Initially, the protein is expressed for 2-6 hours at 37 C and then transferred to a 25 C shaker for up to 6 days. A 1 ml sample of fermentation broth is removed every 24 hrs during the 25 C expression and examined for fluorescence. […] After accounting for volume displacement, there was a 1-4% increase in DsRed2 emission at 22 mM glucose after excitation at 475 nm due to FRET.

With “E149C,A213R,L238S: GGBP mutant combining the preceding mutations” the “Tm (temperature where 50% of the protein was denatured)” value ([1]; in the presence of glucose) was 50 °C, the “Tm (temperature where 50% of the protein was denatured)” value ([1]; without glucose) was 47 °C and the “fluorescence increase upon binding glucose retained, of the original fluorescence increase” value ([2]; labeled protein solution stored 3 months at 25° C. in the dark) was 92%. The “fluorescence increase upon binding glucose retained, of the original fluorescence increase” value ([2]; labeled protein solution stored 3 months at 37° C. in the dark) was 88%, the Kd ([3]; binding curve) was 12000 µM and the “increase in fluorescence on binding glucose” value (from here on “increase in fluorescence”) [3] was over 6 fold.

MBP(D14V, K15V, D95C)-NBD [SC-2] gave a Kd [4] of 11 µM, a Kd [5] of 40 µM and a Kd [6] of 220 µM.

With MBP(D14L,K15R,D95C)-NBD [SC-1] the QF [4] was 2.8, the Kd [4] was 3.7 µM and the QF [5] was 2.1. It also gave a Kd [5] of 3.6 µM, a QF [7] of 5.5 and a QF [6] of 3.4. For the same substance, the Kd [6] was 15 µM.

For “MBP(D95C)-NBD [CONTROL, reference compound]”, the QF [4] was 1.2, the Kd [4] was 4.5 µM and the QF [5] was 5.2. The Kd [5] was 0.2 µM, the QF [7] was 5.5 and the QF [6] was 5.3. For the same substance, the Kd [6] was 1 µM.

For DsRed2-GGBP-acGFP, the “increase in DsRed2 emission due to FRET” value [8] was 1-4%.

For “E149C,L238S: GGBP mutant binding protein identified through an analogous procedure”, the Kd ([3]; binding curve) was 80 µM and the “increase in fluorescence” value [3] was 6 fold.

With “E149C,A213R: GGBP mutant binding protein identified by the periplasmic screening assay” the Kd ([3]; binding curve) was 1000 µM and the “increase in fluorescence” value [3] was 6 fold.

In the case of “E149C,N256R: GGBP mutant selected by screening, eliminated from further testing”, the glucose affinity ([3]; binding curve) is reported as “did not reach saturation at 100 mM glucose” and the “increase in fluorescence” value [3] is reported as 2 fold.

Source: US20060040327A1, “Methods of screening proteins” (priority 2004, published 2006)
